Article PMC9674851, “Biological effects of the loss of homochirality in a multicellular organism” (Nature Communications, 2022)
Numbered stars: 1 amine (or outer) side, 2 acyl side, 3 side chain; on linkers, the order of the positions; unused ones are H or OH. Square brackets hold non-standard residues; d marks the D form. Peptide text beside a SMILES is read from it. * marks the point of attachment. βAsp = O=C(O)[C@H](CC(=O)[*:2])N[*:1]; AMC = Cc1cc(=O)oc2cc(N*)ccc12

How the values were obtained:
[1] = biological target: T1, purified recombinant human Pimt (Homo sapiens, UniProt P22061); experiment: Pimt colorimetric continuous enzyme coupled assay (SAM methyltransferase colorimetric assay); assay type: biochemical; details: Pimt 1 µM, substrate 100 µM, 37 °C
T1 construct: purchased Gentaur MBS144034
Procedure: SAM Methyltransferase colorimetric assay (Merck) was used to measure the activity of purified recombinant human Pimt (EC 2.1.1.77, MBS144034, Gentaur) on different target substrates at 37 °C. Pimt (1 µM final concentration) enzymatic activity was followed spectrophotometrically by the increase in absorbance at 510 nm using DeNovix DS-11 Series microvolume Spectrophotometer/Fluorometer. Assay was performed on different homo- and heterochiral synthetic substrates Ac-[…]-amide (Peptide 1), Ac-KRKGDEV-(iso-L-Asp)-GVDEVAK-amide (Peptide 2) (both of which HPLC purity is >90%), at 100 µM final concentration. The peptide’s sequence is identical and correspond to the PARP1 fragment which is cleaved by Dcp-1 in the in vivo cleavage assay.

[2] = biological target: T2, recombinant human active Caspase-3 (Homo sapiens, UniProt P42574); experiment: ChiCAS: chiral-selective in vitro DEVD-ase assay; assay type: biochemical; details: for caspase-3 activity: substrate 20 µM in HEPES assay buffer with 10 mM DTT, fluorescence at 460 nm; for cleavage by Caspase-3 (in words): recombinant human Caspase-3, fluorogenic AMC substrates
T2 construct: Assay was performed with recombinant human active Caspase-3 (556471, BD Biosciences); purchased BD Biosciences 556471
T2 sequence (P42574 29-175 limits assumed): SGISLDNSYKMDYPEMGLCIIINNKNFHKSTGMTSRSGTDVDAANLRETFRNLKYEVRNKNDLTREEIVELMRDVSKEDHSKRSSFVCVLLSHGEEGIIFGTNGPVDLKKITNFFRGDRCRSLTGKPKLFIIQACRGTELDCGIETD
T2 sequence (P42574 176-277 limits assumed): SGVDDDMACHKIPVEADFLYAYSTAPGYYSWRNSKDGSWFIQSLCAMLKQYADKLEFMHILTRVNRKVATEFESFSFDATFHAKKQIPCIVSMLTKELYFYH
Procedure: The following homochiral and heterochiral fluorogenic substrates were chemically synthesised: Ac-DEV-(L-aspartate)-AMC (positive control), Ac-DEV-(iso-L-aspartate)-AMC, Ac-DEV-(D-aspartate)-AMC, Ac-DEV-(iso-D-aspartate)-AMC, Ac-DEVG-AMC and Ac-DEV-(L-alanine)-AMC (negative control) and […] (custom peptide synthesis by GenScript). All synthetic peptides were dissolved in DMSO and stored at -80 °C. Reactions were performed as described below. Ac-DEVx-AMC substrates were used in a final concentration of 20 μM in assay buffer (50 mM HEPES, 100 mM NaCl, 0,1% CHAPS, 1 mM EDTA, 10% Glycerol, 10 mM DTT - immediately added before use). Assay was performed with recombinant human active Caspase-3 (556471, BD Biosciences). Reactions were performed in 96 well microplates (100 μl/reaction) and caspase activity was monitored spectrophotometrically by the increase in fluorescence at 460 nm using Synergy 4 BioTek fluorescence absorbance microplate reader and Gen5 program.

[3] = design: method as in earlier work; details: ref http://www.ilo.org/dyn/icsc/showcard.display?p_version=2&p_card_id=1439; cited from earlier work

T1 sequence (P22061 whole entry): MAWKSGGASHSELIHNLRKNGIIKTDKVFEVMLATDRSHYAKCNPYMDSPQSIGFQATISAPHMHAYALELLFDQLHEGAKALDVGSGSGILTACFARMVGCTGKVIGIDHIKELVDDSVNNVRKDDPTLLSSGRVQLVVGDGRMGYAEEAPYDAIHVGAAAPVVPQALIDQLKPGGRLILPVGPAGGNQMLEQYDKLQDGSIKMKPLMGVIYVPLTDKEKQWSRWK

| Structure (SMILES) | Pimt enzymatic activity (in words) [1] | caspase-3 activity ([2]; experiment 1) | caspase-3 activity ([2]; experiment 2) | caspase-3 activity ([2]; experiment 3) | cleavage by Caspase-3 (in words) [2] | Octanol/water partition coefficient as log Pow [3] |
| --- | --- | --- | --- | --- | --- | --- |
| CC(=O)N[C@@H](CC(=O)O)C(=O)N[C@@H](CCC(=O)O)C(=O)N[C@H](C(=O)NCC(=O)Nc1ccc2c(C)cc(=O)oc2c1)C(C)C [Ac-DEVG-AMC, acetyl-DEVG-7-amido-4-methylcoumarin] (Ac-DEVG-{AMC}) | – | 650 R.F.U. | 558 R.F.U. | 613 R.F.U. | non-cleavable | – |
| N[C@@H](CC(=O)O)C(=O)O [AsparticAcid] | – | – | – | – | – | -3.89 |
| CC(=O)N[C@@H](CC(=O)O)C(=O)N[C@@H](CCC(=O)O)C(=O)N[C@H](C(=O)N[C@@H](C)C(=O)Nc1ccc2c(C)cc(=O)oc2c1)C(C)C [Ac-DEVA-AMC, acetyl-DEVA-7-amido-4-methylcoumarin] (Ac-DEVA-{AMC}) | – | 396 R.F.U. | 61 R.F.U. | 164 R.F.U. | non-cleavable | – |

More lines, main results first:

| Pimt enzymatic activity (in words) [1] | caspase-3 activity ([2]; experiment 1) | caspase-3 activity ([2]; experiment 2) | caspase-3 activity ([2]; experiment 3) | cleavage by Caspase-3 (in words) [2] | Structure (SMILES) | Octanol/water partition coefficient as log Pow [3] |
| --- | --- | --- | --- | --- | --- | --- |
| active Pimt enzymatic activity | – | – | – | – | CC(=O)N[C@@H](CCCCN)C(=O)N[C@@H](CCCNC(=N)N)C(=O)N[C@@H](CCCCN)C(=O)NCC(=O)N[C@@H](CC(=O)O)C(=O)N[C@@H](CCC(=O)O)C(=O)N[C@H](C(=O)N[C@@H](CC(=O)NCC(=O)N[C@H](C(=O)N[C@@H](CC(=O)O)C(=O)N[C@@H](CCC(=O)O)C(=O)N[C@H](C(=O)N[C@@H](C)C(=O)N[C@@H](CCCCN)C(N)=O)C(C)C)C(C)C)C(=O)O)C(C)C [Peptide 2] (Ac-KRKGDEV[βAsp]GVDEVAK-NH2) | – |
| no enzymatic activity was detected | – | – | – | – | CC(=O)N[C@@H](CCCCN)C(=O)N[C@@H](CCCNC(=N)N)C(=O)N[C@@H](CCCCN)C(=O)NCC(=O)N[C@@H](CC(=O)O)C(=O)N[C@@H](CCC(=O)O)C(=O)N[C@H](C(=O)N[C@@H](CC(=O)O)C(=O)NCC(=O)N[C@H](C(=O)N[C@@H](CC(=O)O)C(=O)N[C@@H](CCC(=O)O)C(=O)N[C@H](C(=O)N[C@@H](C)C(=O)N[C@@H](CCCCN)C(N)=O)C(C)C)C(C)C)C(C)C [Peptide 1] (Ac-KRKGDEVDGVDEVAK-NH2) | – |
